Patent US20100076010A1, “ALPHA 1A-ADRENOCEPTOR ANTAGONISTS” (CONCERT Pharmaceuticals, Inc., priority 2007, published 2010)

Experiment: Evaluation of metabolic stability in human liver microsomes
Type: in vitro ADME
Settings: for half-life at 1 μM: in vitro t1/2, 0.5 mg/mL human liver microsomes, 1 μM test compound, 2 mM NADPH, pH 7.4, 37° C., 0-30 minutes, average of two experiments, read-out: Half-life (t1/2) (min) ± SD; for Increase over Silodosin (%): increase of HLM half-life relative to silodosin
Method: Evaluation of Metabolic Stability in Human Liver Microsomes. Human liver microsomes (“HLM”; 20 mg/mL) were obtained from Xenotech, LLC (Lenexa, Kans.). β-nicotinamide adenine dinucleotide phosphate, reduced form (NADPH), magnesium chloride (MgCl2), and dimethyl sulfoxide (DMSO) were purchased from Sigma-Aldrich.
Stock solutions of Compounds 108, 110, 111 and silodosin (7.5 mM) were separately prepared in DMSO. The 7.5 mM stock solutions were diluted to 50 μM in acetonitrile (ACN). The 20 mg/mL human liver microsomes were diluted to 0.625 mg/mL in 0.1 M potassium phosphate buffer, pH 7.4, containing 3 mM MgCl2. The diluted microsomes (375 μL) were added to wells of a 96-well deep-well polypropylene plate in triplicate. Ten μL of the 50 μM test compound solution was added to the microsomes and the mixture was pre-warmed for 10 minutes. Reactions were initiated by addition of 125 μL, of pre-warmed NADPH solution (8 mM NADPH in 0.1M potassium phosphate buffer, pH 7.4, containing 3 mM MgCl2). The final reaction volume was 0.5 mL and contains 0.5 mg/mL human liver microsomes, 1 μM test compound, and 2 mM NADPH in 0.1 M potassium phosphate buffer, pH 7.4, and 3 mM MgCl2. The reaction mixtures were incubated at 37° C., and 50 μL aliquots were removed at 0, 5, 10, 20, and 30 minutes and added to shallow-well 96-well plates which contain 50 μL of ice-cold ACN with internal standard to stop the reactions. The plates were stored at 4° C. for 20 minutes after which 100 μL of water was added to the wells of the plate before centrifugation to pellet precipitated proteins. Supernatants were transferred to another 96-well plate and analyzed for amounts of parent remaining by LC-MS/MS using an Applied Bio-systems API 4000 mass spectrometer.
The in vitro t1/2s for test compounds were calculated from the slopes of the linear regression of % parent remaining (ln) vs incubation time relationship. in vitro t1/2=0.693/k, where k=−[slope of linear regression of % parent remaining(ln) vs incubation time]. The experiment was performed twice. Data analysis was performed using Microsoft Excel Software.

half-life at 1 μM [min] | Increase over Silodosin (%) | Structure (SMILES)
44 ± 1.2 | 21 | [2H]C([2H])(O)C([2H])([2H])C([2H])([2H])N1CCc2cc(C[C@@H](C)NC([2H])([2H])C([2H])([2H])Oc3ccccc3OC([2H])([2H])C(F)(F)F)cc(C(N)=O)c21 [Compound 108, (R)-1-(3-Hydroxy-(1,1,2,2,3,3-d6)-propyl)-5-(2-(2-(2-(2,2,2-trifluoro-1,1-d2-ethoxy)phenoxy)-(1,1,2,2-d4)-ethylamino)propyl)indoline-7-carboxamide]
43 ± 10 | 17 | [2H]C([2H])(N[C@H](C)Cc1cc2c(c(C(N)=O)c1)N(CCCO)CC2)C([2H])([2H])Oc1ccccc1OC([2H])([2H])C(F)(F)F [Compound 110, (R)-1-(3-hydroxypropyl)-5-(2-(2-(2-(2,2,2-d2-trifluoroethoxy)phenoxy)-d4-ethylamino)propyl)indoline-7-carboxamide]
32 ± 0.1 | 0 | [2H]C([2H])(O)C([2H])([2H])C([2H])([2H])N1CCc2cc(C[C@@H](C)NCCOc3ccccc3OCC(F)(F)F)cc(C(N)=O)c21 [Compound 111, (R)-1-(3-Hydroxy-(1,1,2,2,3,3-d6)-propyl)-5-(2-(2-(2-(2,2,2-trifluoroethoxy)-phenoxy)ethylamino)propyl)indoline-7-carboxamide]
37 ± 0.1 | – | C[C@H](Cc1cc2c(c(C(N)=O)c1)N(CCCO)CC2)NCCOc1ccccc1OCC(F)(F)F [Silodosin, (R)-1-(3-hydroxypropyl)-5-(2-(2-(2-(2,2,2-trifluoroethoxy)phenoxy)ethylamino)-propyl)indoline-7-carboxamide, reference compound]
